Results reported in patent US20150105252A1, “SUBSTITUTED PYRAZOLES AS HERBICIDES” (E I DU PONT DE NEMOURS AND COMPANY, priority 2013, published 2015).

Legend:
barnyardgrass [1] = test: Test A preemergence; assay type: in vivo, Echinochloa crus-galli; conditions: preemergence
Summary of the method: (§1)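 Growth medium: loam soil blended with sand. Preemergence treatment used a directed soil spray right after planting; postemergence treatment targeted seedlings at one to two leaves (2–10 cm height). Response was judged by eye relative to untreated plants about 10 days later on a 0–100 control scale.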

crabgrass, large [2] = test: Test A preemergence; assay type: in vivo, Digitaria sanguinalis; conditions: preemergence; for Crabgrass, Large plant response rating (0 to 100 scale): visual injury approx. 10 days after treatment
Summary of the method: as §1

foxtail, giant [3] = test: Test A preemergence; assay type: in vivo, Setaria faberii; conditions: preemergence; for Foxtail, Giant plant response rating (0 to 100 scale): visual injury approx. 10 days after treatment
Summary of the method: as §1

morningglory [4] = test: Test A preemergence; assay type: in vivo, Ipomoea spp.; conditions: preemergence; for Morningglory plant response rating (0 to 100 scale): visual injury approx. 10 days after treatment
Summary of the method: as §1

pigweed [5] = test: Test A preemergence; assay type: in vivo, Amaranthus retroflexus; conditions: preemergence; for Pigweed plant response rating (0 to 100 scale): visual injury approx. 10 days after treatment
Summary of the method: as §1

velvetleaf [6] = test: Test A preemergence; assay type: in vivo, Abutilon theophrasti; conditions: preemergence; for Velvetleaf plant response rating (0 to 100 scale): visual injury approx. 10 days after treatment
Summary of the method: as §1

wheat [7] = test: Test A preemergence; assay type: in vivo, Triticum aestivum; conditions: preemergence; for Wheat plant response rating (0 to 100 scale): visual injury approx. 10 days after treatment
Summary of the method: as §1

corn [8] = test: Test A preemergence; assay type: in vivo, Zea mays; conditions: preemergence; for Corn plant response rating (0 to 100 scale): visual injury approx. 10 days after treatment
Summary of the method: as §1

barnyardgrass [9] = test: Test A postemergence; assay type: in vivo, Echinochloa crus-galli
Summary of the method: as §1

crabgrass, large [10] = test: Test A postemergence; assay type: in vivo, Digitaria sanguinalis
Summary of the method: as §1

foxtail, giant [11] = test: Test A postemergence; assay type: in vivo, Setaria faberii
Summary of the method: as §1

morningglory [12] = test: Test A postemergence; assay type: in vivo, Ipomoea spp.
Summary of the method: as §1

pigweed [13] = test: Test A postemergence; assay type: in vivo, Amaranthus retroflexus
Summary of the method: as §1

velvetleaf [14] = test: Test A postemergence; assay type: in vivo, Abutilon theophrasti
Summary of the method: as §1

wheat [15] = test: Test A postemergence; assay type: in vivo, Triticum aestivum
Summary of the method: as §1

corn [16] = test: Test A postemergence; assay type: in vivo, Zea mays
Summary of the method: as §1

rice = test: Test B flood; assay type: in vivo, Oryza sativa; conditions: 250 g ai/ha, visual rating on 0 to 100 scale (0 no effect, 100 complete control), 13 to 15 days
Summary of the method: (§2)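 Visual ratings on a 0–100 scale, where 0 means no effect and 100 means complete control, were assigned by comparison with controls 13 to 15 days after treatment. Compounds went into paddy water over 2-leaf plants flooded to 3 cm.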

sedge, umbrella = test: Test B flood; assay type: in vivo, Cyperus difformis; conditions: 250 g ai/ha, visual rating on 0 to 100 scale (0 no effect, 100 complete control), 13 to 15 days
Summary of the method: as §2

ducksalad = test: Test B flood; assay type: in vivo, Heteranthera limosa; conditions: 250 g ai/ha, visual rating on 0 to 100 scale (0 no effect, 100 complete control), 13 to 15 days
Summary of the method: as §2

barnyardgrass [17] = test: Test B flood; assay type: in vivo, Echinochloa crus-galli; conditions: 250 g ai/ha, visual rating on 0 to 100 scale (0 no effect, 100 complete control), 13 to 15 days
Summary of the method: as §2

[18] = 125 g ai/ha, visual injury, 0 to 100 scale, approx. 10 days
[19] = 500 g ai/ha, visual injury after approx. 10 days, 0 to 100 scale (0 no effect, 100 complete control)
[20] = Postemergence, 500 g ai/ha, 0 to 100 scale (0 no effect, 100 complete control)
[21] = postemergence, 125 g ai/ha, about 10 days, visual rating on 0 to 100 scale (0 no effect, 100 complete control)
[22] = Postemergence, 500 g ai/ha, visual rating after approx. 10 days, 0 to 100 scale (0 no effect, 100 complete control)

SMILES | Barnyardgrass plant response rating (barnyardgrass [1]; [18]) | Barnyardgrass plant response rating (barnyardgrass [1]; [19]) | Crabgrass, Large plant response rating (crabgrass, large [2]; [19]) | Foxtail, Giant plant response rating (foxtail, giant [3]; [19]) | Morningglory plant response rating (morningglory [4]; [19]) | Pigweed plant response rating (pigweed [5]; [19]) | Velvetleaf plant response rating (velvetleaf [6]; [19]) | Wheat plant response rating (wheat [7]; [19]) | Corn plant response rating (corn [8]; [19]) | Crabgrass, Large plant response rating (crabgrass, large [10]; [21]) | Foxtail, Giant plant response rating (foxtail, giant [11]; [21]) | Morningglory plant response rating (morningglory [12]; [21]) | Pigweed plant response rating (pigweed [13]; [21]) | Velvetleaf plant response rating (velvetleaf [14]; [21]) | Wheat plant response rating (wheat [15]; [21]) | Corn plant response rating (corn [16]; [21]) | Plant response rating, Rice (rice) | Plant response rating, Sedge, Umbrella (sedge, umbrella) | Plant response rating, Ducksalad (ducksalad) | Plant response rating, Barnyardgrass (barnyardgrass [17]) | further results
CCc1cc(C(=O)NC2CC2)nn1Cc1nnc(C(F)(F)F)o1 [Compound 172] | 0 | 50 | 90 | 50 | 40 | 100 | 20 | 0 | 10 | 10 | 0 | 30 | 30 | 10 | 0 | 0 | 0 | 0 | 0 | 0 | Crabgrass, Large plant response rating (0 to 100 scale) (crabgrass, large [2]; 125 g ai/ha): 50; Foxtail, Giant plant response rating (0 to 100 scale) (foxtail, giant [3]; 125 g ai/ha): 20; Morningglory plant response rating (0 to 100 scale) (morningglory [4]; 125 g ai/ha): 30; Pigweed plant response rating (0 to 100 scale) (pigweed [5]; 125 g ai/ha): 80; Velvetleaf plant response rating (0 to 100 scale) (velvetleaf [6]; 125 g ai/ha): 10; Wheat plant response rating (0 to 100 scale) (wheat [7]; 125 g ai/ha): 0; Corn plant response rating (0 to 100 scale) (corn [8]; 125 g ai/ha): 0; Barnyardgrass plant response rating (barnyardgrass [9]; [20]): 10; Barnyardgrass plant response rating (barnyardgrass [9]; [21]): 0; Crabgrass, Large plant response rating (crabgrass, large [10]; [20]): 20; Foxtail, Giant plant response rating (foxtail, giant [11]; [20]): 10; Morningglory plant response rating (morningglory [12]; [20]): 70; Pigweed plant response rating (pigweed [13]; [20]): 80; Velvetleaf plant response rating (velvetleaf [14]; [20]): 20; Wheat plant response rating (wheat [15]; [20]): 0; Corn plant response rating (corn [16]; [20]): 10
Cc1cc(C(=O)Nc2ccc(F)cc2)nn1Oc1ccnc(C(F)(F)F)c1 [Compound 90] | 0 | 0 | 20 | 10 | 10 | 10 | 0 | 10 | 40 | 0 | 0 | 0 | 0 | 0 | 0 | 0 | 0 | 0 | 0 | 0 | Crabgrass, Large plant response rating (crabgrass, large [2]; [18]): 0; Foxtail, Giant plant response rating (foxtail, giant [3]; [18]): 0; Morningglory plant response rating (morningglory [4]; [18]): 0; Pigweed plant response rating (pigweed [5]; [18]): 0; Velvetleaf plant response rating (velvetleaf [6]; [18]): 0; Wheat plant response rating (wheat [7]; [18]): 0; Corn plant response rating (corn [8]; [18]): 0; Barnyardgrass plant response rating (barnyardgrass [9]; Postemergence, 125 g ai/ha, 0 to 100 scale, 0 no effect, 100 complete control): 0; Barnyardgrass plant response rating (barnyardgrass [9]; [22]): 0; Crabgrass, Large plant response rating (crabgrass, large [10]; [22]): 0; Foxtail, Giant plant response rating (foxtail, giant [11]; [22]): 0; Morningglory plant response rating (morningglory [12]; [22]): 10; Pigweed plant response rating (pigweed [13]; [22]): 0; Velvetleaf plant response rating (velvetleaf [14]; [22]): 0; Wheat plant response rating (wheat [15]; [22]): 0; Corn plant response rating (corn [16]; [22]): 30
COCc1cc(C(=O)NC2CC2)nn1Cc1ccnc(C(F)(F)F)c1 [Compound 167] | 30 | 100 | 100 | 100 | 100 | 100 | 100 | 50 | 40 | 20 | 40 | 80 | 70 | 30 | 0 | 10 | 20 | 70 | 80 | 20 | Crabgrass, Large plant response rating (0 to 100 scale) (crabgrass, large [2]; 125 g ai/ha): 80; Foxtail, Giant plant response rating (0 to 100 scale) (foxtail, giant [3]; 125 g ai/ha): 90; Morningglory plant response rating (0 to 100 scale) (morningglory [4]; 125 g ai/ha): 50; Pigweed plant response rating (0 to 100 scale) (pigweed [5]; 125 g ai/ha): 100; Velvetleaf plant response rating (0 to 100 scale) (velvetleaf [6]; 125 g ai/ha): 30; Wheat plant response rating (0 to 100 scale) (wheat [7]; 125 g ai/ha): 0; Corn plant response rating (0 to 100 scale) (corn [8]; 125 g ai/ha): 0; Barnyardgrass plant response rating (barnyardgrass [9]; [20]): 80; Barnyardgrass plant response rating (barnyardgrass [9]; [21]): 20; Crabgrass, Large plant response rating (crabgrass, large [10]; [20]): 80; Foxtail, Giant plant response rating (foxtail, giant [11]; [20]): 90; Morningglory plant response rating (morningglory [12]; [20]): 100; Pigweed plant response rating (pigweed [13]; [20]): 100; Velvetleaf plant response rating (velvetleaf [14]; [20]): 60; Wheat plant response rating (wheat [15]; [20]): 30; Corn plant response rating (corn [16]; [20]): 70
